Assay results from ChEMBL document CHEMBL5247610, “Discovery of 5-((4-(pyridin-3-yl)pyrimidin-2-yl)amino)-1H-indole-2-carboxamide derivatives as novel anti-cancer agents targeting Nur77” (Eur J Med Chem, 2022).
The source made the active and inactive calls. No cut-off for these calls is given here.

What was measured:
[1] = tested on: HepG2; experiment: Induction of apoptosis in human HepG2 cells transfected with Nur77 siRNA assessed as induction of PARP cleavage at 10 to 15 uM incubated for 12 hrs by western blot analysis; format: functional, cell-based; details: dose 10-15 µM
[2] = Selectivity index, ratio of IC50 for human L02 cells to IC50 for human HeLa cells by MTT assay; format: toxicity; details: L02 cells versus HeLa cells, read-out: Ratio IC50
[3] = tested on: HeLa; experiment: Antiproliferative activity against human HeLa cells assessed as cell viability at 10 uM incubated for 48 hrs by MTT assay; format: functional; details: read-out: Activity
[4] = biological target: T1, Nuclear receptor subfamily 4immunitygroup A member 1 (Homo sapiens, UniProt P22736); experiment: Modulation of GFP-Nur77 (unknown origin) transfected in human HepG2 cells assessed as induction of Nur77 translocation from nucleus to mitochondria at 10 uM incubated for 3 hrs by confocal microscopy; details: filed as modulator
T1 sequence (P22736 whole entry): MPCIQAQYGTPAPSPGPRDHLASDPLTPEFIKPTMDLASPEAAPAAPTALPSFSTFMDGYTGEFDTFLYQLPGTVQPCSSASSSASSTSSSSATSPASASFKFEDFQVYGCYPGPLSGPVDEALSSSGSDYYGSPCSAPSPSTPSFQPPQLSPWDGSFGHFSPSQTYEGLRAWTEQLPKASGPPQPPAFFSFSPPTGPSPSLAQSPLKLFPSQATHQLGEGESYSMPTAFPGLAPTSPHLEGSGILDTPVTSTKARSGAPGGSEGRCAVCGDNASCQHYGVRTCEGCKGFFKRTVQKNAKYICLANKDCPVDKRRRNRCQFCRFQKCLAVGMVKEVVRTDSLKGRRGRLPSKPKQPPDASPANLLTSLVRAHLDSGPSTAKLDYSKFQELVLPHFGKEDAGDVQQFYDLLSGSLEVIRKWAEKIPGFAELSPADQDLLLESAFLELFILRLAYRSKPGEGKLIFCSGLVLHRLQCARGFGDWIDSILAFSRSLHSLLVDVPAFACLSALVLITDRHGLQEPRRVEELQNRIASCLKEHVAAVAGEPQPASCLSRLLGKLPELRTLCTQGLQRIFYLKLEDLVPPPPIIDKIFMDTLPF

[5] = Toxicity in Zebra fish AB embryo assessed as induction of morphological abnormalities at 0.5 uM incubated for 72 hrs; set-up: species or system Danio rerio; details: zebrafish
[6] = biological target: T1, Nuclear receptor subfamily 4immunitygroup A member 1; experiment: Modulation of Myc-Nur77 (unknown origin) transfected in HEK293T cells assessed as induction of Nur77 translocation from nucleus to cytoplasm at 10 uM incubated for 2 to 4 hrs by western blot analysis; format: cell-based; details: filed as modulator, time 2-4 hrs
[7] = tested on: HepG2; experiment: Antiproliferative activity against human HepG2 cells assessed as cell viability at 10 uM incubated for 48 hrs by MTT assay; format: functional; details: read-out: Activity
[8] = Selectivity index, ratio of IC50 for human L02 cells to IC50 for human MDA-MB-231 cells by MTT assay; format: toxicity; details: L02 cells versus MDA-MB-231 cells, read-out: Ratio IC50
[9] = Selectivity index, ratio of IC50 for human L02 cells to IC50 for human HepG2 cells by MTT assay; format: toxicity; details: L02 cells versus HepG2 cells, read-out: Ratio IC50
[10] = biological target: T1, Nuclear receptor subfamily 4immunitygroup A member 1; experiment: Binding affinity to Nur77 ligand binding domain (unknown origin) by fluorescence quenching assay
[11] = biological target: T1, Nuclear receptor subfamily 4immunitygroup A member 1; experiment: Binding affinity to pBind-Nur77-LBD (unknown origin) transfected in HEK293T cells co-transfected with pG5-Luc assessed as inhibition of Nur77 transcriptional activity by measuring inhibition of Nur77-driven luciferase activity incubated for 12 hrs by luciferase reporter gene assay; format: cell-based; details: filed as modulator, dose 1.25-5 µM
[12] = Selectivity index, ratio of IC50 for human L02 cells to IC50 for human Huh-7 cells by MTT assay; format: toxicity; details: L02 cells versus Huh-7 cells, read-out: Ratio IC50
[13] = tested on: HepG2; experiment: Induction of apoptosis in Nur77 overexpressing human HepG2 cells transfected with Myc-Nur77 assessed as induction of PARP cleavage at 5 uM incubated for 12 hrs by western blot analysis; format: functional, cell-based
[14] = tested on: HepG2; experiment: Induction of apoptosis in human HepG2 cells assessed as late apoptotic cells at 10 uM incubated for 12 hrs by AnnexinV-FITC/PI staining based flow cytometry (reference value: 1.91%); format: functional
[15] = Toxicity in BALB/c nude mouse xenografted with human HepG2 cells assessed as effect on liver damage at 50 mg/kg ip administered once every day for 14 days by H and E staining based analysis; format: organism-based; details: in vivo, 336 h, time 14 day
[16] = tested on: HepG2; experiment: Induction of apoptosis in human HepG2 cells transfected with Nur77 siRNA assessed as mitochondrial membrane potential loss by measuring proportion of cells with depolarized MMP at 10 uM incubated for 12 hrs by JC-1 staining based flow cytometry (reference value: 5.81%); format: functional
[17] = Cytotoxicity against human L02 cells assessed as reduction in cell viability incubated for 48 hrs by MTT assay; format: toxicity, cell-based
[18] = tested on: HepG2; experiment: Antitumor activity against human HepG2 cells xenografted in BALB/c nude mouse assessed as inhibition of tumor volume at 50 mg/kg, ip administered once every day for 14 days; format: functional, organism-based; details: time 14.0 day
[19] = Toxicity in BALB/c nude mouse xenografted with human HepG2 cells assessed as effect on lung damage at 50 mg/kg ip administered once every day for 14 days by H and E staining based analysis; format: organism-based; details: in vivo, 336 h, time 14 day
[20] = tested on: HepG2; experiment: Induction of apoptosis in human HepG2 cells assessed as viable cells at 10 uM incubated for 12 hrs by AnnexinV-FITC/PI staining based flow cytometry (reference value: 96.32%); format: functional; details: read-out: Activity
[21] = Toxicity in BALB/c nude mouse xenografted with human HepG2 cells assessed as effect on kidney damage at 50 mg/kg ip administered once every day for 14 days by H and E staining based analysis; format: organism-based; details: in vivo, 336 h, time 14 day
[22] = tested on: HepG2; experiment: Induction of apoptosis in human HepG2 cells assessed as early apoptotic cells at 10 uM incubated for 12 hrs by AnnexinV-FITC/PI staining based flow cytometry (reference value: 0.83%); format: functional
[23] = biological target: T2, Retinoic acid receptor RXR-alpha (Homo sapiens) (UniProt P19793); experiment: Binding affinity to pBind-RXRalpha-LBD (unknown origin) transfected in HEK293T cells co-transfected with pG5-Luc at 5 uM incubated for 12 hrs by luciferase reporter gene assay; format: cell-based
T2 sequence (whole entry): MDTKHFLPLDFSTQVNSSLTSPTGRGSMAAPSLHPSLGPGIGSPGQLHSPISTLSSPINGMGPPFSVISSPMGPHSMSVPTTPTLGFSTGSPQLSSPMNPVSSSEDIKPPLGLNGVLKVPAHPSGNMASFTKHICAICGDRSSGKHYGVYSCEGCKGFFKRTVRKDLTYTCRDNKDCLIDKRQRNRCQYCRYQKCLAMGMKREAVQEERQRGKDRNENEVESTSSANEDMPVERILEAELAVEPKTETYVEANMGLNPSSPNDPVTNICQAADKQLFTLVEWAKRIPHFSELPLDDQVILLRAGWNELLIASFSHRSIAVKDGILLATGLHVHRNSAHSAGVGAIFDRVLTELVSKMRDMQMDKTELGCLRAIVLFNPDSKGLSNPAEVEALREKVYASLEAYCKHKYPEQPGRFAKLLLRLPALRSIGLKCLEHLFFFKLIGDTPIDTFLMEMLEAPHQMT

[24] = Cytotoxicity against human L02 cells assessed as cell viability at 10 uM incubated for 48 hrs by MTT assay; format: toxicity, cell-based; details: read-out: Activity
[25] = tested on: HepG2; experiment: Antitumor activity against human HepG2 cells xenografted in BALB/c nude mouse assessed as inhibition of tumor growth at 50 mg/kg, ip administered once every day for 14 days; format: functional; details: HepG2, 336 h, time 14 day, read-out: TGI

Compound: CN(C)CCCNC(=O)c1cc2cc(Nc3nccc(-c4cccnc4)n3)ccc2[nH]1
- Activity [1]: inactive
- selectivity ratio [2]: 3
- viability at 10 µM [3]: 19.4%
- Activity [4]: Active
- Activity [5]: Non-Toxic
- Activity [6]: Active
- viability at 10 µM [7]: 43.7%
- selectivity ratio [8]: 3.47
- selectivity ratio [9]: 1.24
- Kd [10]: 0.121 µM
- Activity [11]: Dose-Dependent Effect
- selectivity ratio [12]: 3.14
- Activity [13]: Active
- Activity [14]: 8.01%
- Activity [15]: Non-Toxic
- Activity [16]: 8.91%
- IC50 at 48 h [17]: 11.2 µM
- Activity [18]: Active
- Activity [19]: Non-Toxic
- viability at 10 µM [20]: 72.7%
- Activity [21]: Non-Toxic
- Activity [22]: 16.5%
- Activity [23]: inactive
- viability at 48 h, 10 µM [24]: 53.4%
- inhibition in vivo at 50 mg/kg [25]: 71.8%
